Legend:
[1] = target: T1, 5-HT2A (Homo sapiens, UniProt P28223); experiment: Serotonin 5-HT2A in vitro cellular IPOne antagonism assay (HTRF); assay type: cell-based; design: host or cells: CHO-K1; settings: CHO-K1 cells, reference agonist α-Me-5HT; read-out: 5-HT2A IPOne Antagonist Activity
Experimental: (§1) Serotonin 5-HT2A In Vitro Cellular IPOne Antagonism Assay. The 5-HT2A IPOne HTRF assay was performed at Epics Therapeutics S.A. (Belgium, FAST-O0505) in antagonism mode using conventional methods. Briefly, CHO-K1 cells expressing human recombinant 5-HT2A receptor grown to mid-log phase in culture media without antibiotics were detached with PBS-EDTA, centrifuged, and resuspended in medium without antibiotics buffer. 20,000 cells were distributed in a 96 well plate and incubated overnight at 37° C. with 5% Co2.
For antagonist testing, a reference agonist α-Me-5HT was added and fluorescence signal monitored for several minutes, followed by addition of 20 μl of assay buffer plus 20 μl of test compound or reference antagonist ketanserin, in each well. The plate was incubated for 60 min. at 37° C. with 5% CO2.
(§2) After addition of the lysis buffer containing IP1-d2 and anti-IP1 cryptate detection reagents, plates were incubated 1-hour at room temperature, and fluorescence ratios were measured according to the manufacturer specification, with the HTRF kit.

[2] = target: T1, 5-HT2A; experiment: Serotonin 5-HT2A in vitro cellular IPOne agonism assay (HTRF); assay type: cell-based; design: host or cells: CHO-K1; settings: CHO-K1 cells, agonist mode
Experimental: as §1, with “Agonism” for “Antagonism”, “FAST-0505I)” for “FAST-O0505) in antagonism mode”
For agonist testing, the medium was removed and 20 μl of assay buffer plus 20 μl of test compound or reference agonist were added in each well. The plate was incubated for 60 min. at 37° C. with 5% CO2.
as §2

[3] = target: T1, 5-HT2A; experiment: Serotonin 5-HT2A in vitro radioligand binding competition assay ([3H]-DOI); design: purchased Epics Therapeutics S.A. (Belgium) FAST-0505B; settings: [3H]-DOI radiotracer, membrane extracts
Experimental: Serotonin 5-HT2A In Vitro Radioligand Binding Competition Assay. The 5-HT2A radioligand binding competition assay was performed at Epics Therapeutics S.A. (Belgium, FAST-0505B) using conventional methods. Briefly, competition binding was performed in duplicate in the wells of a 96 well plate (Master Block, Greiner, 786201) containing binding buffer (optimized for each receptor), membrane extracts (amount of protein/well optimized for each receptor), radiotracer [^3H]-DOI (final concentration optimized for each receptor) and test compound. Nonspecific binding was determined by co-incubation with 200-fold excess of cold competitor. The samples were incubated in a final volume of 0.1 ml at a temperature and for a duration optimized for each receptor and then filtered over filter plates. Filters were washed six times with 0.5 ml of ice-cold washing buffer (optimized for each receptor) and 50 μl of Microscint 20 (Packard) were added in each well. The plates were incubated 15 min on an orbital shaker and then counted with a TopCount™ for 1 min/well.

T1 sequence (P28223 whole entry): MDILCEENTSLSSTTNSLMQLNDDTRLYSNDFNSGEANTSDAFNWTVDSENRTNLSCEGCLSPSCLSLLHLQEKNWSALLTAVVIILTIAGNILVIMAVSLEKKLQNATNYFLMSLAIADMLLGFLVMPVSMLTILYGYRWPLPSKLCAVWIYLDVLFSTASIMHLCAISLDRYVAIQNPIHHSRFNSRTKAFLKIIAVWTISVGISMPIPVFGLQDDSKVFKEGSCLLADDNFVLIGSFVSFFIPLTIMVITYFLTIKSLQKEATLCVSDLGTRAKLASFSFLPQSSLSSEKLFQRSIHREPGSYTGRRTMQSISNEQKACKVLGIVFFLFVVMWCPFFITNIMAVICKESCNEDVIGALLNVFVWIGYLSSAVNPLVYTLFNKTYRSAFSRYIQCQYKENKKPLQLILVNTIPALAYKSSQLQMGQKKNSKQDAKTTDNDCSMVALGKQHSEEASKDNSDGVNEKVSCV

For `CC(N)Cc1ncc2cc(F)ccn12` (stereo not drawn) [Compound 4, 1-(7-fluoroimidazo[1,5-a]pyridin-3-yl)propan-2-amine], the IC50 [1] was 1 to 10 µM, the EC50 [2] was greater than 10 µM and the IC50 [3] was 0.101 to 1 µM.
`COc1ccn2c(CC(C)N(C)C)cnc2c1` (stereo not drawn) [Compound 37, 1-(7-Methoxyimidazo[1,2-a]pyridin-3-yl)-N,N-dimethylpropan-2-amine] showed an EC50 [2] greater than 10 µM and an IC50 [3] greater than 10 µM.
For `CC(Cc1cnc2ccccn12)N(C)C` (stereo not drawn) [Compound 36, 1-(imidazo[1,2-a]pyridin-3-yl)-N,N-dimethylpropan-2-amine], the EC50 [2] was greater than 10 µM and the IC50 [3] was greater than 10 µM.
With `Cc1cccn2c(CC(C)N)ncc12` (stereo not drawn) [Compound 8, 1-(8-methylimidazo[1,5-a]pyridin-3-yl)propan-2-amine] the IC50 [1] was greater than 10 µM, the EC50 [2] was 1 to 10 µM and the IC50 [3] was 1 to 10 µM.
For `c1ccn2c(CC3CCCN3)ncc2c1` (stereo not drawn) [Compound 13, 3-(Pyrrolidin-2-ylmethyl)imidazo[1,5-a]pyridine], the IC50 [1] was 1 to 10 µM, the EC50 [2] was greater than 10 µM and the IC50 [3] was 1 to 10 µM.
Compound `CC(Cc1cnn2ccccc12)N(C)C` (stereo not drawn) [Compound 50, N,N-dimethyl-1-(pyrazolo[1,5-a]pyridin-3-yl)propan-2-amine] has an EC50 [2] greater than 10 µM and an IC50 [3] greater than 10 µM.
`Cc1ccc2cnc(CC(C)N)n2c1` (stereo not drawn) [Compound 10, 1-(6-methylimidazo[1,5-a]pyridin-3-yl)propan-2-amine] showed an EC50 [2] of 1 to 10 µM and an IC50 [3] of 1 to 10 µM.
Work on `Cc1cccn2c(CC(C)N(C)C)ncc12` (stereo not drawn) [Compound 21, N,N-dimethyl-1-(8-methylimidazo [1,5-a]pyridin-3-yl)propan-2-amine] yielded an EC50 [2] greater than 10 µM and an IC50 [3] of 1 to 10 µM.
Compound `CC(N)Cc1ncn2ccccc12` (stereo not drawn) [Compound 40, 1-(imidazo[1,5-a]pyridin-1-yl)propan-2-amine] has an EC50 [2] greater than 10 µM and an IC50 [3] of 1 to 10 µM.
For `CC(N)Cc1cnc2cc(F)ccn12` (stereo not drawn) [Compound 35, 1-(7-Fluoroimidazo[1,2-a]pyridin-3-yl)propan-2-amine], the EC50 [2] was greater than 10 µM and the IC50 [3] was greater than 10 µM.
`CN1CCC(c2ncc3ccccn23)C1` (stereo not drawn) [Compound 32, 3-(1-methylpyrrolidin-3-yl)imidazo[1,5-a]pyridine] showed an IC50 [1] of 1 to 10 µM, an EC50 [2] greater than 10 µM and an IC50 [3] of 0.101 to 1 µM.
Work on `CC(C)NC(C)Cc1ncc2ccccn12` (stereo not drawn) [Compound 26, 1-(imidazo [1,5-a]pyridin-3-yl)-N-isopropylpropan-2-amine] yielded an IC50 [1] of 0.101 to 1 µM, an EC50 [2] greater than 10 µM and an IC50 [3] of 0.101 to 1 µM.
`C[C@H](Cc1ncc2ccccn12)N(C)C` [Compound 30, (R)-1-(imidazo[1,5-a]pyridin-3-yl)-N,N-dimethylpropan-2-amine] gave an IC50 [1] of 1 to 10 µM, an EC50 [2] greater than 10 µM and an IC50 [3] of 0.101 to 1 µM.
`CC(N)Cc1ncc2ccccn12` (stereo not drawn) [Compound 2, 1-(imidazo [1,5-a]pyridin-3-yl)propan-2-amine] gave an EC50 [2] of 0.101 to 1 µM and an IC50 [3] of 1 to 10 µM.
In the case of `CC(N)Cc1cnc2ccccn12` (stereo not drawn) [Compound 33, 1-(imidazo[1,2-a]pyridin-3-yl)propan-2-amine], the EC50 [2] is reported as greater than 10 µM and the IC50 [3] is reported as greater than 10 µM.
With `Cc1nc(CC(C)N(C)C)c2ccc(F)cn12` (stereo not drawn) [Compound 46, 1-(6-fluoro-3-methylimidazo [1,5-a]pyridin-1-yl)-N,N-dimethylpropan-2-amine] the EC50 [2] was greater than 10 µM and the IC50 [3] was 1 to 10 µM.
`NCCc1ncn2ccccc12` [Compound 39, 2-(Imidazo[1,5-a]pyridin-1-yl)ethan-1-amine] gave an EC50 [2] of 1 to 10 µM and an IC50 [3] of 1 to 10 µM.
`CC(Cc1cnc2cc(F)ccn12)N(C)C` (stereo not drawn) [Compound 38, 1-(7-Fluoroimidazo[1,2-a]pyridin-3-yl)-N,N-dimethylpropan-2-amine] showed an EC50 [2] greater than 10 µM and an IC50 [3] greater than 10 µM.
`NCCc1ncc2ccccn12` [Compound 1, 2-(imidazo[1,5-a]pyridin-3-yl)ethan-1-amine] was tested, and the EC50 [2] was greater than 10 µM and the IC50 [3] was 1 to 10 µM.
`CN1CCCC1Cc1ncc2ccccn12` (stereo not drawn) [Compound 31, 3-((1-Methylpyrrolidin-2-yl)methyl)imidazo[1,5-a]pyridine] was tested, and the IC50 [1] was 0.101 to 1 µM, the EC50 [2] was greater than 10 µM and the IC50 [3] was 1 to 10 µM.
In the case of `Cc1nc(CCN)c2ccccn12` [Compound 41, 2-(3-methylimidazo[1,5-a]pyridin-1-yl)ethan-1-amine], the EC50 [2] is reported as greater than 10 µM and the IC50 [3] is reported as greater than 10 µM.
`Cc1nc(CC(C)N(C)C)n2ccccc12` (stereo not drawn) [Compound 24, N,N-dimethyl-1-(1-methylimidazo [1,5-a]pyridin-3-yl)propan-2-amine] showed an EC50 [2] greater than 10 µM and an IC50 [3] greater than 10 µM.
For `C[C@@H](Cc1ncc2ccccn12)N(C)C` [Compound 29, (S)-1-(imidazo[1,5-a]pyridin-3-yl)-N,N-dimethylpropan-2-amine], the EC50 [2] was greater than 10 µM and the IC50 [3] was 1 to 10 µM.
In the case of `COc1ccn2c(CC(C)N(C)C)ncc2c1` (stereo not drawn) [Compound 16, 1-(7-methoxyimidazo[1,5-a]pyridin-3-yl)-N,N-dimethylpropan-2-amine], the EC50 [2] is reported as greater than 10 µM and the IC50 [3] is reported as greater than 10 µM.
With `CC(N)Cc1cnn2ccccc12` (stereo not drawn) [Compound 48, 1-(pyrazolo[1,5-a]pyridin-3-yl)propan-2-amine] the EC50 [2] was 1 to 10 µM and the IC50 [3] was greater than 10 µM.
With `Cc1nc(CC(C)N)n2ccccc12` (stereo not drawn) [Compound 11, 1-(1-methylimidazo[1,5-a]pyridin-3-yl)propan-2-amine] the EC50 [2] was 1 to 10 µM and the IC50 [3] was 1 to 10 µM.
Work on `Cc1nc(CC(C)N)n2ccc(F)cc12` (stereo not drawn) [Compound 5, 1-(7-fluoro-1-methylimidazo [1,5-a]pyridin-3-yl)propan-2-amine] yielded an EC50 [2] of 1 to 10 µM and an IC50 [3] of 1 to 10 µM.
`COc1ccn2c(CC(C)N)ncc2c1` (stereo not drawn) [Compound 3, 1-(7-methoxyimidazo[1,5-a]pyridin-3-yl)propan-2-amine] showed an EC50 [2] greater than 10 µM and an IC50 [3] of 1 to 10 µM.
`Cc1cccc2cnc(CC(C)N(C)C)n12` (stereo not drawn) [Compound 20, N,N-dimethyl-1-(5-methylimidazo [1,5-a]pyridin-3-yl)propan-2-amine] gave an EC50 [2] greater than 10 µM and an IC50 [3] greater than 10 µM.
Compound `NCCc1cnn2ccccc12` [Compound 47, 2-(Pyrazolo[1,5-a]pyridin-3-yl)ethan-1-amine] has an EC50 [2] greater than 10 µM and an IC50 [3] greater than 10 µM.
Compound `Cc1ccc2cnc(CC(C)N(C)C)n2c1` (stereo not drawn) [Compound 23, N,N-dimethyl-1-(6-methylimidazo [1,5-a]pyridin-3-yl)propan-2-amine] has an EC50 [2] greater than 10 µM and an IC50 [3] greater than 10 µM.
For `Cc1nc(CC(C)N)c2ccc(F)cn12` (stereo not drawn) [Compound 42, 1-(6-fluoro-3-methylimidazo[1,5-a]pyridin-1-yl)propan-2-amine], the EC50 [2] was 1 to 10 µM and the IC50 [3] was 1 to 10 µM.
`Cc1cccc2cnc(CC(C)N)n12` (stereo not drawn) [Compound 7, 1-(5-methylimidazo[1,5-a]pyridin-3-yl)propan-2-amine] showed an EC50 [2] of 1 to 10 µM and an IC50 [3] of 1 to 10 µM.
Compound `Cc1nc(CC(C)N(C)C)n2ccc(F)cc12` (stereo not drawn) [Compound 18, 1-(7-fluoro-1-methylimidazo [1,5-a]pyridin-3-yl)-N,N-dimethylpropan-2-amine] has an EC50 [2] greater than 10 µM and an IC50 [3] of 1 to 10 µM.
Compound `CC(Cc1ncc2ccccn12)N1CCOCC1` (stereo not drawn) [Compound 28, 4-(1-(Imidazo[1,5-a]pyridin-3-yl)propan-2-yl)morpholine] has an EC50 [2] greater than 10 µM and an IC50 [3] of 1 to 10 µM.
`CCN(CC)C(C)Cc1ncc2ccccn12` (stereo not drawn) [Compound 25, N,N-diethyl-1-(imidazo[1,5-a]pyridin-3-yl)propan-2-amine] was tested, and the EC50 [2] was greater than 10 µM and the IC50 [3] was 1 to 10 µM.
`CN(C)CCc1cnn2ccccc12` [Compound 49, N,N-dimethyl-2-(pyrazolo[1,5-a]pyridin-3-yl)ethan-1-amine] gave an EC50 [2] greater than 10 µM and an IC50 [3] greater than 10 µM.
Compound `COc1ccn2c(CC(C)N)cnc2c1` (stereo not drawn) [Compound 34, 1-(7-methoxyimidazo[1,2-a]pyridin-3-yl)propan-2-amine] has an EC50 [2] greater than 10 µM and an IC50 [3] greater than 10 µM.
Compound `Cc1ccn2c(CC(C)N(C)C)ncc2c1` (stereo not drawn) [Compound 22, N,N-dimethyl-1-(7-methylimidazo [1,5-a]pyridin-3-yl)propan-2-amine] has an EC50 [2] greater than 10 µM and an IC50 [3] greater than 10 µM.
In the case of `Cc1nc(CCN(C)C)c2ccccn12` [Compound 45, N,N-dimethyl-2-(3-methylimidazo [1,5-a]pyridin-1-yl)ethan-1-amine], the EC50 [2] is reported as greater than 10 µM and the IC50 [3] is reported as greater than 10 µM.

Source: patent US20250059184A1 (priority 2021, published 2025)
